Data set [1] can be described thus: in vitro. The note with it: SD, HW or BN, rat, plasma.
Data set [2] is described as follows: in vitro. The note with it: human, plasma, PPB.

`O=C(O)CNC(=O)c1ncccc1O`: the fraction unbound at 5 h was 0.24 in the data set “in vitro [1]” and 0.232 in the data set “in vitro [2]”.
The corresponding values for `Cc1ccc(S(=O)(=O)NCCSc2nnnn2-c2ccc(C(N)=O)cc2)cc1` are 0.19 and 0.101.
Take `O=c1cc(Cn2c(C3CCC3)nc3nccnc32)c2ccc(F)c(F)c2[nH]1`: the values for the fraction unbound at 5 h in “in vitro [1]” and in the data set “in vitro [2]” were 0.16 and 0.201, respectively.
With `CN(C)CCC1CCN(c2cc(C(=O)NC[C@H]3CC[C@H](CNC(=O)OC4CCOCC4)CC3)c3ccccc3n2)CC1`, the results for the fraction unbound at 5 h in the data set “in vitro [1]” and in the data set “in vitro [2]” were 0.262 and 0.179, respectively.
Take `O=c1cc(N2CCOCC2)nc2n(Cc3cccc(Cl)c3)ccn12`: the fraction unbound at 5 h in “in vitro [1]” was 0.11; in the data set “in vitro [2]”, 0.101.
In the case of `COc1ccc(CCC[N+](C)(CCCc2ccc(OC)cc2)CCNC(=O)c2nc(Cl)c(N)nc2N)cc1`, the results for the fraction unbound at 5 h in the data set “in vitro [1]” and in “in vitro [2]” were 0.157 and 0.163, respectively.
In the case of `CCOc1ccc([C@@H](C)Nc2nc(N3CCN(C(C)=O)CC3)nc3c2CN(C(C)C)C3=O)cc1F`, the fraction unbound at 5 h in the data set “in vitro [1]” is 0.258; in the data set “in vitro [2]” it was 0.334.
Regarding `CC(C)C(NC(=O)c1ccccc1)C(=O)c1ccc(F)cc1` (stereo not drawn), the fraction unbound at 5 h in “in vitro [1]” was 0.0836; in the data set “in vitro [2]”, 0.0499.
`CC(C)C(NC(=O)c1ccccc1)C(=O)c1ccc(C#N)cc1` (stereo not drawn): the fraction unbound at 5 h in “in vitro [1]” was 0.124; in the data set “in vitro [2]” it was 0.0928.
As to `COc1ncc(-c2cccc(C#N)c2CCNC(=O)c2ccc(OCCC(F)(F)F)nc2)cn1`, the values for the fraction unbound at 5 h in “in vitro [1]” and in the data set “in vitro [2]” were 0.139 and 0.119, respectively.
Consider `Cc1cnc(-c2c(F)ccc(F)c2CCNC(=O)c2ccc(COCC(F)(F)F)nc2)cn1`, for which the fraction unbound at 5 h is 0.28 in “in vitro [1]” and 0.0801 in the data set “in vitro [2]”.
As to `O=c1cc(N2CCOCC2)nc(NCc2ccccc2)[nH]1`, the fraction unbound at 5 h in “in vitro [1]” is 0.19; in “in vitro [2]” it was 0.266.
Regarding `O=c1cc(N2CCOCC2)nc(NCc2cccc(Cl)c2)[nH]1`, the fraction unbound at 5 h in “in vitro [1]” is 0.0477; in the data set “in vitro [2]”, 0.0705.
Regarding `O=C(NCc1ccc(OC(F)(F)F)cc1)C1c2ccccc2C(=O)N1CCc1ncc(F)cn1` (stereo not drawn), the values for the fraction unbound at 5 h in “in vitro [1]” and in “in vitro [2]” were 0.0928 and 0.0477, respectively.
The corresponding values for `O=C(NCc1ccc(OCC(F)(F)F)nc1)C1c2ccccc2C(=O)N1CCc1ccccn1` (stereo not drawn) are 0.371 and 0.0928.
For `COc1ccc(-c2c(C(=O)N3CCC[C@H]3CO)cc3cccnn23)cc1`, the fraction unbound at 5 h was 0.262 in the data set “in vitro [1]” and 0.11 in the data set “in vitro [2]”.
Regarding `CCN(CCO)C(=O)c1oc2cccnc2c1-c1cccc(C(F)(F)F)c1`, the fraction unbound at 5 h in the data set “in vitro [1]” is 0.139; in “in vitro [2]”, 0.0872.
With `CN(Cc1cccc2ccccc12)c1cc(N2CCOCC2)nc(=O)[nH]1`, the fraction unbound at 5 h in the data set “in vitro [1]” was 0.0064; in “in vitro [2]”, 0.0568.
Take `O=c1nc(N2CCOCC2)cc(N(CCO)Cc2cccc3ccccc23)[nH]1`: the fraction unbound at 5 h is 0.151 in “in vitro [1]” and 0.139 in the data set “in vitro [2]”.
With `CN1CCN(S(=O)(=O)c2ccc(-c3cnc(N)c(C(=O)Nc4cnccc4CN4CCCC4)n3)cc2)CC1`, the figures for the fraction unbound at 5 h in “in vitro [1]” and in “in vitro [2]” were 0.0988 and 0.0784, respectively.
With `Cc1nc(C(F)F)c(C(N)=O)nc1-c1ccc([C@H]2CC[C@H](CC(=O)O)CC2)cc1`, the fraction unbound at 5 h in “in vitro [1]” is 0.0383; in the data set “in vitro [2]”, 0.0544.
On the same counts, the results for `Cc1nc(C)c(-c2ccc([C@H]3CC[C@H](CC(=O)NC(C)(C)C(=O)O)CC3)cc2)nc1C(N)=O` are 0.0251 and 0.0784.
As for `O=C(CCCN1CC[Si](O)(c2ccc(Cl)cc2)CC1)c1ccc(F)cc1`, the fraction unbound at 5 h in “in vitro [1]” and in “in vitro [2]” was 0.0544 each time.
Take `CC(C)(C)NC(=O)CN1CCN(CC(=O)NC23CC4CC(CC(C4)C2)C3)CC1`: the fraction unbound at 5 h is 0.309 in “in vitro [1]” and 0.299 in “in vitro [2]”.

(Values after ChEMBL document CHEMBL3301361, “Experimental in vitro DMPK and physicochemical data on a set of publicly disclosed compounds”.)
